# Results reported in US12723023B2, “Ionizable cationic lipids for RNA delivery” (Arcturus Therapeutics, Inc., priority 2021, dated 2026).
# How the values were obtained:
# Mouse plasma stability = assay type: in vitro ADME, CD-1 mouse; conditions: 1 μM lipid
# Protocol: Lipid stock solution was prepared by dissolution of the lipid in isopropanol at the concentration of 5 mg/mL. A requisite volume of the lipid-isopropanol solution was then diluted to 100 μM concentration at a total volume of 1.0 mL with in 50:50 (v/v) ethanol/water. Ten microliters of this 100 μM solution was spiked into 1.0 mL of mouse plasma (BioIVT, Cat. No.: MSE00PLNHUNN, CD-1 mouse, anticoagulant: sodium heparin, not filtered) that was pre-warmed to 37° C. and was stirred at 50 rpm with a magnetic stir bar. The starting concentration of lipids in plasma was thus 1 μM. At time points 0, 15, 30, 45, 60 and 120 min, 0.1 mL of the plasma was withdrawn from the reaction mixture and the protein was precipitated by adding 0.9 mL of ice-cold 4:1 (v/v) acetonitrile/methanol with 1 μg/mL of a selected internal standard lipid added. After filtration through a 0.45 micron 96-well filtering plate, the filtrates were analyzed by LC-MS (Thermo Fisher's Vanquish UHPLC-LTQ XL linear ion trap Mass Spectrometer); Waters XBridge BEH Shield RP18 2.5 micron (2.1×100 mm) column with its matching guard column. Mobile phase A was 0.1% formic acid in water, and mobile phase B was 0.1% formic acid in 1:1 (v/v) acetonitrile/methanol. Flow rate was 0.5 ml/min. Elution gradient was: Time 0-1 min: 10% B; 1-6 min: 10%-95% B; 6-8.5 min: 95% B; 8.5-9 min: 95%-10% B; 9-10 min: 10% B. Mass spectrometry was in positive scanning mode from 600-1100 m/z. The peak of the molecular ion of the lipids was integrated in the extracted ion chromatography (XIC) using Xcalibur software (Thermo Fisher). The relative peak area compared to T=0, after normalization by the peak area of the internal standard, was used as the percentage of the lipid remaining at each time point. T1/2 values were calculated using the first-order decay model.
# [1] = In vivo biodegradability assay (lipid concentration in mouse liver by LC-MS); parameters: species or system mice; conditions: BLOQ: below level of quantification; for In vivo degradability (ng tissue) at 48 h 0.1 mpk: Table 1, 0.1 mpk; for In vivo degradability (ng/tissue) at 48 h 0.1 mpk: Table 2, 0.1 mpk
# Protocol: In vivo biodegradability assay was performed to assess the biodegradability of lipids in the LNP. Briefly, mice were injected with either 0.1 or 0.03 mg/Kg dose and after 24 or 48 hours mice livers were collected. To measure the concentration of lipids in the mouse liver, liver samples were homogenized in appropriate buffer in 1-10 dilution and mixed with the same amount of stabilized plasma. The samples were then mixed with organic solvents spiked with internal standard to precipitate proteins. After centrifugation, supernatant was diluted further with organic solvent before sample analysis by LC-MS. In LC-MS analysis, positive electrospray ionization was used, and multiple reaction monitoring (MRM) parameters were set up to specifically target the lipid analyte and internal standard. Calibration standards were prepared in stabilized plasma and mixed with same amount of homogenization buffer before protein precipitation. Quality control samples with known amounts of lipid was prepared in blank liver homogenate to monitor the precision and accuracy of the assay.
"Plasma half life % remaining after 2 h (Mouse plasma stability; Table 1, 37° C.)","Plasma half life % remaining after 2 h (Mouse plasma stability; Table 2, 37° C.)","In vivo degradability (ng/tissue) at 48 h 0.03 mpk ([1]; Table 1, 0.03 mpk)",In vivo degradability (ng tissue) at 48 h 0.1 mpk [1],"In vivo degradability (ng/tissue) at 48 h 0.03 mpk ([1]; Table 2, 0.03 mpk)",In vivo degradability (ng/tissue) at 48 h 0.1 mpk [1],Compound
256%,100%,<340 ng/tissue,<340 ng tissue,<340 ng/tissue,<340 ng/tissue,"CC1CCC(CC(=O)OCC(COC(=O)CC2CCC(C)CC2)OC(=O)CCCN(CCCC(=O)OC(COC(=O)CC2CCC(C)CC2)COC(=O)CC2CCC(C)CC2)C(=O)SCCCN(C)C)CC1 (stereo not drawn) [LIPID 15, ((4,4′-((((3-(dimethylamino)propyl)thio)carbonyl)-azanediyl)bis(butanoyl))bis(oxy))bis(propane-2,1,3-triyl) tetrakis(2-(4-methylcyclohexyl)acetate)]"
14%,14%,BLOQ,BLOQ,BLOQ,BLOQ,"CCCCCCCCC(=O)OCC(COC(=O)CCCCCCCC)OC(=O)CCCN(CCCC(=O)OC(COC(=O)CCCCCCCC)COC(=O)CCCCCCCC)C(=O)SCCCN(C)C [LIPID 1, ((4,4′-((((3-(Dimethylamino)propyl)thio)carbonyl)azanediyl)bis(butanoyl))bis(oxy))bis(propane-2,1,3-triyl) tetranonanoate]"
,100%,,,BLOQ,BLOQ,CC1CCC(CCC(=O)OCC(COC(=O)CCC2CCC(C)CC2)COC(=O)CCN(CCC(=O)OCC(COC(=O)CCC2CCC(C)CC2)COC(=O)CCC2CCC(C)CC2)C(=O)SCCCN(C)C)CC1 (stereo not drawn) [LIPID 27]
,100%,,,BLOQ,BLOQ,CN(C)CCCSC(=O)N(CCCC(=O)OC(COC(=O)C1CC2CCCCC2C1)COC(=O)C1CC2CCCCC2C1)CCCC(=O)OC(COC(=O)C1CC2CCCCC2C1)COC(=O)C1CC2CCCCC2C1 (stereo not drawn) [LIPID 28]
74%,74%,<340 ng/tissue,<340 ng tissue,<340 ng/tissue,<340 ng/tissue,CCCCCCCCC(=O)OCC(COC(=O)CCCCCCCC)OC(=O)CCN(CCC(=O)OC(COC(=O)CCCCCCCC)COC(=O)CCCCCCCC)C(=O)SCCCN(C)C [LIPID 13]
36%,36%,BLOQ,BLOQ,BLOQ,BLOQ,"CN(C)CCCSC(=O)N(CCCC(=O)OC(COC(=O)CCC1CCCCC1)COC(=O)CCC1CCCCC1)CCCC(=O)OC(COC(=O)CCC1CCCCC1)COC(=O)CCC1CCCCC1 [LIPID 10, ((4,4′-((((3-(Dimethylamino)propyl)thio)carbonyl)azanediyl)bis(butanoyl))bis(oxy))bis(propane-2,1,3-triyl) tetrakis(3-cyclohexylpropanoate)]"
,100%,,,BLOQ,BLOQ,"CN(C)CCCSC(=O)N(CCCC(=O)OC(COC(=O)C1CCC2CCCC2C1)COC(=O)C1CCC2CCCC2C1)CCCC(=O)OC(COC(=O)C1CCC2CCCC2C1)COC(=O)C1CCC2CCCC2C1 (stereo not drawn) [LIPID 30, ((4,4′-((((3-(dimethylamino)propyl)thio)carbonyl)azanediyl)bis(butanoyl))bis(oxy))bis(propane-2,1,3-triyl) tetrakis(octahydro-1H-indene-5-carboxylate)]"

# Continued, compound first:
Compound,"Plasma half life % remaining after 2 h (Mouse plasma stability; Table 1, 37° C.)","Plasma half life % remaining after 2 h (Mouse plasma stability; Table 2, 37° C.)","In vivo degradability (ng/tissue) at 48 h 0.03 mpk ([1]; Table 1, 0.03 mpk)",In vivo degradability (ng tissue) at 48 h 0.1 mpk [1],"In vivo degradability (ng/tissue) at 48 h 0.03 mpk ([1]; Table 2, 0.03 mpk)",In vivo degradability (ng/tissue) at 48 h 0.1 mpk [1]
"CCCCCCCCC(=O)OCC(COC(=O)CCCCCCCC)COC(=O)CCCN(CCCC(=O)OCC(COC(=O)CCCCCCCC)COC(=O)CCCCCCCC)C(=O)SCCCN(C)C [LIPID 25, ((4,4′-((((3-(Dimethylamino)propyl)thio)carbonyl)azanediyl)bis(butanoyl))bis(oxy))bis(methylene))bis(propane-2,1,3-triyl) tetranonanoate]",,100%,,,BLOQ,BLOQ
"CCCCCCCCC(=O)OCC(COC(=O)CCCCCCCC)COC(=O)CCN(CCC(=O)OCC(COC(=O)CCCCCCCC)COC(=O)CCCCCCCC)C(=O)SCCN(C)C [LIPID 26, ((3,3′-((((2-(Dimethylamino)ethyl)thio)carbonyl)azanediyl)bis(propanoyl))bis(oxy))bis(methylene))bis(propane-2,1,3-triyl) tetranonanoate]",,100%,,,BLOQ,BLOQ
"CCC1CCC(C(=O)OCC(C)(COC(=O)CCN(CCC(=O)OCC(C)(COC(=O)C2CCC(CC)CC2)COC(=O)C2CCC(CC)CC2)C(=O)SCCCN(C)C)COC(=O)C2CCC(CC)CC2)CC1 (stereo not drawn) [LIPID 22, ((3,3′-((((3-(Dimethylamino)propyl)thio)carbonyl)azanediyl)bis(propanoyl))bis(oxy))bis(methylene)bis(2-methylpropane-2,1,3-triyl) tetrakis(2-(4-ethylcyclohexyl)acetate)]",,100%,,,<340 ng/tissue,<340 ng/tissue
CCCCCCCC(=O)OCC(C)(COC(=O)CCCCCCC)COC(=O)CCN(CCC(=O)OCC(C)(COC(=O)CCCCCCC)COC(=O)CCCCCCC)C(=O)SCCCN(C)C [LIPID 24],,100%,,,BLOQ,BLOQ
CCCCCCCCC(=O)OCC(COC(=O)CCCCCCCC)COC(=O)CCN(CCC(=O)OCC(COC(=O)CCCCCCCC)COC(=O)CCCCCCCC)C(=O)SCCCN(C)C [LIPID 14],116%,100%,<340 ng/tissue,<340 ng tissue,<340 ng/tissue,<340 ng/tissue
CCCCC(C)(C)CC(=O)OCC(C)(COC(=O)CCN(CCC(=O)OCC(C)(COC(=O)CC(C)(C)CCCC)COC(=O)CC(C)(C)CCCC)C(=O)SCCCN(C)C)COC(=O)CC(C)(C)CCCC [LIPID 23],,100%,,,<340 ng/tissue,<340 ng/tissue
"CCCCCCCCC(=O)OCC(COC(=O)CCCCCCCC)OC(=O)CN(CC(=O)OC(COC(=O)CCCCCCCC)COC(=O)CCCCCCCC)C(=O)SCCCN(C)C [LIPID 8, ((2,2′-((((3-(Dimethylamino)propyl)thio)carbonyl)azanediyl)bis(acetyl))bis(oxy))bis(propane-2,1,3-triyl) tetranonanoate]",81%,81%,BLOQ,BLOQ,BLOQ,BLOQ
CC1CCC(CC(=O)OCC(C)(COC(=O)CCN(CCC(=O)OCC(C)(COC(=O)CC2CCC(C)CC2)COC(=O)CC2CCC(C)CC2)C(=O)SCCCN(C)C)COC(=O)CC2CCC(C)CC2)CC1 (stereo not drawn) [LIPID 21],,100%,,,<340 ng/tissue,<340 ng/tissue
"CCCCCCC(C)C(=O)OCC(COC(=O)C(C)CCCCCC)OC(=O)CCCN(CCCC(=O)OC(COC(=O)C(C)CCCCCC)COC(=O)C(C)CCCCCC)C(=O)SCCCN(C)C (stereo not drawn) [LIPID 18, ((4,4′-((((3-(Dimethylamino)propyl)thio)carbonyl)-azanediyl)bis(butanoyl))bis(oxy))bis(propane-2,1,3-triyl) tetrakis(2-methyloctanoate)]",100%,100%,<340 ng/tissue,639 ng tissue,<340 ng/tissue,639 ng/tissue
